The C3SDB collision cross section collection

How the values were obtained:
[1] = instrument: TW, calibrated with phosphatidylcholines (ESI+) and phosphatidylethanolamines (ESI-), doubly charged cardiolipins calibrated with poly-DL-…
[2] = instrument: TW, calibrated with polyalanine

collision cross section (N2) ([1]; [M-H]-) [Å²] | collision cross section (N2) ([1]; [M+Na]+) [Å²] | Compound | also measured
247.47 | – | CCCCCC/C=C\CCCCCCCC(=O)OCC(COP(=O)(O)O)OC(=O)CCCCCCC/C=C\CCCCCC (configuration not stated) [PA(32:2)] | –
275.05 | 283.87 | CCCCCCCC/C=C\CCCCCCCC(=O)OCC(COP(=O)(O)OCC(O)CO)OC(=O)CCCCCCC/C=C\CCCCCCCC (configuration not stated) [PG(36:2)] | –
259.19 | 273.08 | CCCCCCCCCCCCCCCC(=O)OCC(COP(=O)(O)OCC(O)CO)OC(=O)CCCCCCCC1CC1CCCC (configuration not stated) [PG(31:1)] | –
256.82 | – | CCCCCC/C=C\CCCCCCCC(=O)OCC(COP(=O)(O)O)OC(=O)CCCCCCCC1CC1CCCCCCCC (configuration not stated) [PA(35:2)] | –
273.44 | 287.26 | CCCCCCCCCCCCCCCC(=O)OCC(COP(=O)(O)OCC(O)CO)OC(=O)CCCCCCCC1CC1CCCCCCCC (configuration not stated) [PG(35:1)] | –
256.09 | – | CCCCCC/C=C\CCCCCCCC(=O)OCC(COP(=O)(O)OCCN)OC(=O)CCCCCCCCCCCCCCC (configuration not stated) [PE(32:1)] | collision cross section (N2) ([1]; [M+H]+): 268.72 Å²
264.54 | 275.67 | CCCCCC/C=C\CCCCCCCC(=O)OCC(COP(=O)(O)OCC(O)CO)OC(=O)CCCCCCCC1CC1CCCCCC (configuration not stated) [PG(33:2)] | –
258.7 | – | CCCCCCCCCCCCCCCC(=O)OCC(COP(=O)(O)O)OC(=O)CCCCCCCC1CC1CCCCCCCC (configuration not stated) [PA(35:1)] | –
245.76 | – | CCCCCCCCCCCCCCCC(=O)OCC(COP(=O)(O)O)OC(=O)CCCCCCCC1CC1CCCC (configuration not stated) [PA(31:1)] | –
252.33 | – | CCCCCCCCCCCCCCCC(=O)OCC(COP(=O)(O)O)OC(=O)CCCCCCCC1CC1CCCCCC (configuration not stated) [PA(33:1)] | –
263.99 | – | CCCCCCCC/C=C\CCCCCCCC(=O)OC(COC(=O)CCCCCCCCCCCCCCC)COP(=O)(O)OCCN (configuration not stated) [PE(34:1)] | collision cross section (N2) ([1]; [M+H]+): 275.45 Å²
257.69 | – | CCCCCC/C=C\CCCCCCCC(=O)OCC(COP(=O)(O)OCCN)OC(=O)CCCCCCCC1CC1CCCCCC (configuration not stated) [PE(33:2)] | collision cross section (N2) ([1]; [M+H]+): 268.71 Å²
267.54 | – | CCCCCCCCCCCCCCCC(=O)OCC(COP(=O)(O)OCCN)OC(=O)CCCCCCCC1CC1CCCCCCCC (configuration not stated) [PE(35:1)] | collision cross section (N2) ([1]; [M+H]+): 279.52 Å²

The next lines start with the compound.

Compound | collision cross section (N2) ([1]; [M-H]-) [Å²] | collision cross section (N2) ([1]; [M+Na]+) [Å²] | also measured
CCCCCCC1CC1CCCCCCCC(=O)O[C@H](CO)COP(=O)(O)OCC(O)CO (some centres not stated) [LPG(17:1)] | 213.68 | – | –
C[C@@H](O)[C@H](N)C(=O)O [Threonine] | – | – | collision cross section (N2) ([2]; [M+H]+): 122 Å²
CCCCCC/C=C\CCCCCCCC(=O)OCC(COP(=O)(O)OCC(O)COP(=O)(O)OCC(COC(=O)CCCCCCCCCCCCCC)OC(=O)CCCCCCC/C=C\CCCCCC)OC(=O)CCCCCCC/C=C\CCCCCC (configuration not stated) [CL(63:3)] | – | – | collision cross section (N2) ([1]; [M-2H]2-): 394.68 Å²
O=C(O)[C@H](O)[C@@H](O)[C@H](O)[C@H](O)COP(=O)(O)O [6-Phosphogluconate] | – | – | collision cross section (N2) ([2]; [M+Na]+): 159 Å²
Nc1nc(=O)c2nc(CNc3ccc(C(=O)N[C@@H](CCC(=O)O)C(=O)O)cc3)cnc2[nH]1 [Folic acid] | – | – | collision cross section (N2) ([2]; [M+Na]+): 202 Å²
NC(=O)C[C@H](N)C(=O)O [Asparagine] | – | – | collision cross section (N2) ([2]; [M+H]+): 118 Å²
CCCCCCCC/C=C/CCCCCCCC(=O)O[C@H](CO)COP(=O)(O)OCC(O)CO (some centres not stated) [LPG(18:1)] | 217.26 | – | –
CCCCCCCCC1CC1CCCCCCCC(=O)OC[C@@H](O)COP(=O)([O-])OCC[NH3+] (some centres not stated) [LPE(19:1/0:0)] | 214.97 | 225.77 | collision cross section (N2) ([1]; [M+H]+): 219.65 Å²
CCCCCCCCCCCCCCCC(=O)NCCOP(=O)(O)OC[C@@H](COC(=O)CCCCCCCCCCCCCCC)OC(=O)CCCCCCCC1CC1CCCCCC (some centres not stated) [AcylPE(49:1)] | 320.39 | 328.3 | –
CCCCCC/C=C\CCCCCCCC(=O)OC[C@H](COP(=O)(O)OC[C@@H](O)COC(=O)CCCCCCCCCCCCCCC)OC(=O)CCCCCCCCCCCCCCC [AcylPG(48:1)] | 316.96 | 327.7 | –
CCCCCCCCCCCCCCC(=O)O[C@H](CO)COP(=O)([O-])OCC[NH3+] [LPE(0:0/15:0)] | 202.25 | 216.84 | collision cross section (N2) ([1]; [M+H]+): 212.69 Å²
CCCCCCCCCCCCCCCC(=O)O[C@H](CO)COP(=O)(O)OCC(O)CO (some centres not stated) [LPG(16:0)] | 213.25 | – | –
CCCCCCCC/C=C/CCCCCCCC(=O)OC[C@@H](O)COP(=O)([O-])OCC[NH3+] [LPE(18:1/0:0)] | 211.1 | 219.17 | collision cross section (N2) ([1]; [M+H]+): 214.35 Å²
Nc1ccn([C@@H]2O[C@H](COP(=O)(O)O)[C@@H](O)[C@H]2O)c(=O)n1 [CMP] | – | – | collision cross section (N2) ([2]; [M+H]+): 163 Å²
N[C@@H](CS)C(=O)O [Cysteine] | – | – | collision cross section (N2) ([2]; [M+H]+): 113 Å²
C[C@@](O)(CCO)CC(=O)O [Mevalonic acid] | – | – | collision cross section (N2) ([2]; [M+Na]+): 128 Å²
CCCCC1CC1CCCCCCCC(=O)OC[C@@H](O)COP(=O)([O-])OCC[NH3+] (some centres not stated) [LPE(15:1/0:0)] | 200.28 | – | –
CCCCCCCCCCCCCC(=O)OC[C@@H](O)COP(=O)([O-])OCC[NH3+] [LPE(14:0/0:0)] | 199.2 | 212.49 | collision cross section (N2) ([1]; [M+H]+): 206.14 Å²
CCCCCCCCCCCCCCCC(=O)OC[C@H](O)COP(=O)(O)OC[C@@H](COC(=O)CCCCCCCCCCCCCCC)OC(=O)CCCCCCCC1CC1CCCCCC (some centres not stated) [AcylPG(49:1)] | 320.54 | 332.3 | –
CCCCCCCCCCCCCCC(=O)OC[C@@H](O)COP(=O)(O)OCC(O)CO (some centres not stated) [LPG(15:0)] | 209.66 | – | –
CCCCCC/C=C\CCCCCCCC(=O)OC[C@H](COP(=O)(O)OCCNC(=O)CCCCCCCCCCCCCCC)OC(=O)CCCCCCCCCCCCCCC [AcylPE(48:1)] | 316.85 | 325 | –
CCCCCC/C=C\CCCCCCCC(=O)OCC(COP(=O)(O)OCC(O)COP(=O)(O)OCC(COC(=O)CCCCCCCC1CC1CCCCCC)OC(=O)CCCCCCC/C=C\CCCCCC)OC(=O)CCCCCCC/C=C\CCCCCCCC (configuration not stated) [CL(67:4)] | – | – | collision cross section (N2) ([1]; [M-2H]2-): 404.19 Å²
CCCCCCCC/C=C/CCCCCCCC(=O)O[C@H](CO)COP(=O)([O-])OCC[NH3+] [LPE(0:0/18:1)] | 210.71 | 220.12 | collision cross section (N2) ([1]; [M+H]+): 215.99 Å²
CCCCCC/C=C\CCCCCCCC(=O)OC(COC(=O)CCCCCCCC1CC1CCCCCCCC)COP(=O)(O)OCC(O)COP(=O)(O)OCC(COC(=O)CCCCCCCCCCCCCCC)OC(=O)CCCCCCC/C=C\CCCCCCCC (configuration not stated) [CL(69:3)] | – | – | collision cross section (N2) ([1]; [M-2H]2-): 408.91 Å²
CCCCCC/C=C\CCCCCCCC(=O)OC(COC(=O)CCCCCCCC1CC1CCCCCC)COP(=O)(O)OCC(O)COP(=O)(O)OCC(COC(=O)CCCCCCCCCCCCCCC)OC(=O)CCCCCCC/C=C\CCCCCCCC (configuration not stated) [CL(67:3)] | – | – | collision cross section (N2) ([1]; [M+2K]2+): 428.6 Å²; collision cross section (N2) ([1]; [M-2H]2-): 404.47 Å²
CCCCCC/C=C/CCCCCCCC(=O)O[C@H](CO)COP(=O)(O)OCC(O)CO (some centres not stated) [LPG(16:1)] | 209.98 | – | –
